Reference: ChEMBL document CHEMBL1147420, “Synthesis and biological evaluation of novel coumarin derivatives with a 7-azomethine linkage” (2004)

Assays:
Type in all cases: functional
[1] = target: T1, Beta-glucuronidase (Bos taurus) (UniProt A3KMY8); experiment: Compound was evaluated for in vitro inhibition of beta-glucuronidase at 0.1 mM concentration; […]
T1 sequence (whole entry): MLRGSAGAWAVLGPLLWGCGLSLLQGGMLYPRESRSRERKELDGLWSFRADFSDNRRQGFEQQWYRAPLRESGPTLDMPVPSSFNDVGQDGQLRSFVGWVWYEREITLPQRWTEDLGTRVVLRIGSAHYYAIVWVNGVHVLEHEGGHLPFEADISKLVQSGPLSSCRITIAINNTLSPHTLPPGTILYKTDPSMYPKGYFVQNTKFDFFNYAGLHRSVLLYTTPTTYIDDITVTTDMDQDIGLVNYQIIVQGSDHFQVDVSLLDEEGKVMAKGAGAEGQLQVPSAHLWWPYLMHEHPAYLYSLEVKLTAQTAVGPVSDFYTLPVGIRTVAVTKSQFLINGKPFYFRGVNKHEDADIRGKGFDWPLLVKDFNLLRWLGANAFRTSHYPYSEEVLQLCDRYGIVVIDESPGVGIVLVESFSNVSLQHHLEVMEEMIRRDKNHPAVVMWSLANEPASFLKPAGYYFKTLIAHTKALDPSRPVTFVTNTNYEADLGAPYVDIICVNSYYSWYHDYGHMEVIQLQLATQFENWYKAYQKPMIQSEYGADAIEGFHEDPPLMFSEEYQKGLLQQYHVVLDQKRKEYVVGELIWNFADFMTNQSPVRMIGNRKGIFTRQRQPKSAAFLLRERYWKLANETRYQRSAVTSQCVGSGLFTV

[2] = target: T1, Beta-glucuronidase (Bos taurus); experiment: Compound was evaluated for in vitro inhibition of beta-glucuronidase at 1 mM concentration
[3] = Compound was evaluated for percent inhibition of carrageenan induced rat paw edema at 0.005 mmol/kg
[4] = target: Chymotrypsinogen B (Homo sapiens) (UniProt P17538); experiment: Compound was evaluated for in vitro inhibition of chymotrypsinogen acting as esterase at 0.1 mM concentration
[5] = target: Chymotrypsinogen B (Homo sapiens) (UniProt P17538); experiment: Compound was evaluated for in vitro inhibition of chymotrypsinogen acting as esterase at 1 mM concentration
[6] = target: Chymotrypsinogen B (Homo sapiens) (UniProt P17538); experiment: Compound was evaluated for in vitro inhibition of chymotrypsinogen induced proteolysis at 0.1 mM concentration
[7] = target: Chymotrypsinogen B (Homo sapiens) (UniProt P17538); experiment: Compound was evaluated for in vitro inhibition of chymotrypsinogen induced proteolysis at 1 mM concentration
[8] = target: T2, Seed linoleate 13S-lipoxygenase-1 (Glycine max) (UniProt P08170); experiment: Compound was evaluated for in vitro inhibition of soybean lipoxygenase at 1 mM concentration
T2 sequence (whole entry): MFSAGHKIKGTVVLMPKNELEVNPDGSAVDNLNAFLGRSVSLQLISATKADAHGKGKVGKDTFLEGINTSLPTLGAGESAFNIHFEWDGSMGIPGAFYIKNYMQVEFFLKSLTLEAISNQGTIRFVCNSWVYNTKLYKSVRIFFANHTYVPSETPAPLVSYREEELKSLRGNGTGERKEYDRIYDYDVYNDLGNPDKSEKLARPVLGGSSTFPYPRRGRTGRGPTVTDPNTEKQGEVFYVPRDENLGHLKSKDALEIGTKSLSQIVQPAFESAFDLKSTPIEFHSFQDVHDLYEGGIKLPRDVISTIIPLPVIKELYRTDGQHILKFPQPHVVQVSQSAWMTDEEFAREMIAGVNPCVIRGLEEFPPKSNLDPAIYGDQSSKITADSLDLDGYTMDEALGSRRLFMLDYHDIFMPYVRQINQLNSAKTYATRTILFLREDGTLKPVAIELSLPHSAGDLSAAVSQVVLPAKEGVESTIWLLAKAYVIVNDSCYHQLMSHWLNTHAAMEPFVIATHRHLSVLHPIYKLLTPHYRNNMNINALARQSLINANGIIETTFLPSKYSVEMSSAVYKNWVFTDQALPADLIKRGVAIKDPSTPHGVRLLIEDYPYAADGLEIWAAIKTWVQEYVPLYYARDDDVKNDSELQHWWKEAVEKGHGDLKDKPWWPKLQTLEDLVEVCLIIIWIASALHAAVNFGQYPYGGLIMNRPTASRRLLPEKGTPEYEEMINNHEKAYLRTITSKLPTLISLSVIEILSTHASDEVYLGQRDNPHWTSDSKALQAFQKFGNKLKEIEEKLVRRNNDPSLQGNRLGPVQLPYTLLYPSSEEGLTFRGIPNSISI

[9] = target: T2, Seed linoleate 13S-lipoxygenase-1 (Glycine max); experiment: Compound was evaluated for in vitro inhibition of soybean lipoxygenase at 0.1 mM concentration
[10] = target: Serine protease 1 (Homo sapiens) (UniProt P07477); experiment: Compound was evaluated for in vitro inhibition of trypsin acting as esterase at 0.1 mM concentration
[11] = target: Serine protease 1 (Homo sapiens) (UniProt P07477); experiment: Compound was evaluated for in vitro inhibition of trypsin acting as esterase at 1 mM concentration
[12] = target: Serine protease 1 (Homo sapiens) (UniProt P07477); experiment: Compound was evaluated for in vitro inhibition of trypsin induced proteolysis at 0.1 mM concentration
[13] = target: Serine protease 1 (Homo sapiens) (UniProt P07477); experiment: Compound was evaluated for in vitro inhibition of trypsin induced proteolysis at 1 mM concentration
[14] = Competition percent of compound with DMSO for hydroxyl radical was determined at 0.01 mM concentration
[15] = Competition percent of compound with DMSO for hydroxyl radical was determined at 0.1 mM concentration
[16] = Interaction percent with DPPH after 60 minutes was determined at 0.2 mM concentration
[17] = Interaction percent with DPPH after 60 minutes was determined at 0.5 mM concentration
[18] = Interaction percent with DPPH after 20 minutes was determined at 0.1 mM concentration
[19] = Interaction percent with DPPH after 20 minutes was determined at 0.2 mM concentration
[20] = Interaction percent with DPPH after 20 minutes was determined at 0.5 mM concentration
[21] = Interaction percent with DPPH after 60 minutes was determined at 0.1 mM concentration
[22] = target: T1, Beta-glucuronidase (Bos taurus); experiment: Compound was evaluated for in vitro inhibition of beta-glucuronidase at 0.1 mM concentration
[23] = target: Chymotrypsinogen B (Homo sapiens) (UniProt P17538); experiment: Compound was evaluated for in vitro inhibition of chymotrypsinogen induced proteolysis at 0.1 mM concentration; no action
[24] = target: Serine protease 1 (Homo sapiens) (UniProt P07477); experiment: Compound was evaluated for in vitro inhibition of trypsin induced proteolysis at 0.1 mM concentration; no action
[25] = Competition percent of compound with DMSO for hydroxyl radical was determined at 0.1 mM concentration; No result
[26] = target: T2, Seed linoleate 13S-lipoxygenase-1 (Glycine max); experiment: Compound was evaluated for in vitro inhibition of soybean lipoxygenase at 0.1 mM concentration; no action

Chymotrypsinogen B (Homo sapiens), sequence (P17538 34-164 limits assumed, other chains not shown): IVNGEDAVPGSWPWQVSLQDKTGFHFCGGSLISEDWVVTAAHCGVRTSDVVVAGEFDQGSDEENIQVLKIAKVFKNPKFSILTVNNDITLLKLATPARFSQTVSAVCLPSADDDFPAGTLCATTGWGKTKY
Chymotrypsinogen B (Homo sapiens), sequence (P17538 167-263 limits assumed, other chains not shown): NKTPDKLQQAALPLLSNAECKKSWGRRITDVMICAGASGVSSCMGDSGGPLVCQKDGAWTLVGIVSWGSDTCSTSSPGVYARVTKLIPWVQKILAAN
Serine protease 1 (Homo sapiens), sequence (P07477 whole entry): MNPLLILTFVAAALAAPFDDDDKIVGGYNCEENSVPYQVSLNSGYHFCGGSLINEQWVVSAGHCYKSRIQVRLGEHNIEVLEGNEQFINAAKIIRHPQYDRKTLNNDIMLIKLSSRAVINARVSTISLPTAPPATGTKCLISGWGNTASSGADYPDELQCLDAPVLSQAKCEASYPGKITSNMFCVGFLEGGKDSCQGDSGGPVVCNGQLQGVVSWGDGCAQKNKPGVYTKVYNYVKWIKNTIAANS

Row | inhibition [2] [%] | inhibition [4] [%] | inhibition [5] [%] | inhibition [6] | inhibition [7] [%] | inhibition [8] [%] | inhibition [9] [%] | inhibition [10] [%] | inhibition [11] [%] | inhibition [12] [%] | inhibition [13] [%] | SMILES | inhibition in vivo at 5 µmol/kg [3] [%] | Competition [14] [%] | Competition [15] [%] | RA [16] [%] | RA [17] [%] | RA [18] [%] | RA [19] [%] | RA [20] [%] | RA [21] [%] | further results
1 | 95.9 | 16.4 | 97.7 | 48.1% | 97.4 | 88.9 | 73.5 | 13.6 | 88.7 | 90.4 | 100 | Cc1ccc2ccc(=O)oc2c1 | 55.1 | 30.2 | 43.8 | 5.4 | 3.5 | 0.29 | 1.61 | 2.05 | 2.5 | inhibition [1]: No action
2 | 98.9 | 22.7 | 98.9 | 32.8% | 96.6 | 89.7 | 8.6 | 12.6 | 99.1 | 83.4 | 100 | O=Cc1ccc2ccc(=O)oc2c1 | 29.3 | 33.9 | 35.2 | 7.1 | 12.8 | 1.47 | 2.49 | 16.2 | 3.5 | inhibition [1]: No action
3 | 95.4 | 10 | 83.4 | 90.5% | 73.9 | 100 | 54.3 | 22.6 | 97.6 | 35.3 | 95.9 | O=c1ccc2ccc(/C=N/c3ccccc3)cc2o1 | 42.5 | 72.2 | 89.6 | 10.6 | 11.6 | 12.9 | 13.5 | 14.3 | 10 | inhibition [22]: 26.1%
4 | 93.3 | 10 | 83.4 |  | 93.9 | 100 | 70.8 | 22.6 | 97.6 |  | 100 | CN/N=C/c1ccc2ccc(=O)oc2c1 | 54.7 | 97.3 |  | 86.7 | 87.3 | 69.7 | 84.8 | 92.4 | 80.7 | inhibition [22]: 6.9%; inhibition [23]: No action; inhibition [24]: No action; Competition [25]: No results
5 | 96.8 | 30.6 | 88.7 |  | 80.1 | 71.2 | 77.4 | 31.4 | 99.9 |  | 64.5 | O=c1ccc2ccc(/C=N/Nc3ccccc3)cc2o1 | 35.2 | 15.4 | 65.5 | 64.4 | 79.1 | 36.2 | 48.9 | 78.7 | 56.2 | inhibition [22]: 5.9%; inhibition [23]: No action; inhibition [24]: No action
6 | 94.1 | 16.6 | 100 |  | 56.9 | 100 |  | 25.5 | 99.9 | 100 | 100 | CO/N=C/c1ccc2ccc(=O)oc2c1 | 31.1 | 85.6 | 90.2 | 11.6 | 11.9 | 12.7 | 14.5 | 13.9 | 9.8 | inhibition [22]: 21.9%; inhibition [23]: No action; inhibition [26]: No action

Second part, the compound before the results:

Row | SMILES | inhibition [2] [%] | inhibition [4] [%] | inhibition [5] [%] | inhibition [6] | inhibition [7] [%] | inhibition [8] [%] | inhibition [9] [%] | inhibition [10] [%] | inhibition [11] [%] | inhibition [12] [%] | inhibition [13] [%] | inhibition in vivo at 5 µmol/kg [3] [%] | Competition [14] [%] | Competition [15] [%] | RA [16] [%] | RA [17] [%] | RA [18] [%] | RA [19] [%] | RA [20] [%] | RA [21] [%] | further results
7 | O=c1ccc2ccc(/C=N/N=C/c3ccc4ccc(=O)oc4c3)cc2o1 | 100 | 29.9 | 65.2 | 24.5% | 100 | 10.2 | 8.6 | 9.4 | 65.4 | 99.9 | 100 | 54 | 44.5 | 45.3 | 8.4 | 67.5 | 7.04 | 6.3 | 64.4 | 9.9 | inhibition [22]: 2.3%
8 | COc1ccc2c(c1)c(CC(=O)O)c(C)n2C(=O)c1ccc(Cl)cc1 [INDOMETHACIN] |  |  |  |  |  |  |  |  |  |  |  | 47 |  |  |  |  |  |  |  |  | 
9 | O=c1ccc2ccc(/C=N/O)cc2o1 | 100 | 28.5 | 100 | 37.4% | 98.7 | 98.8 | 37.2 | 20.3 | 98.5 | 70.7 | 77.7 | 58.6 | 43.4 | 50.8 | 7.1 | 12.8 | 0.29 | 3.52 | 9.7 | 4.8 | inhibition [1]: No action
10 | O=c1ccc2ccccc2o1 [COUMARIN] |  | 28.5 | 63.9 | No action | 89.3 | 15.1 |  | 5 | 98 | 12.7 | 95.9 | 30.2 |  | 78 |  | 6.7 | 4.9 |  | 5.8 | 21 | 
11 | CC(O)Cc1ccc2ccc(=O)oc2c1 (stereo not given) | 92.3 | 31.3 | 100 |  | 63.1 | 100 |  | 29.3 | 99.4 | 41.1 | 95.4 | 18 | 80.7 | 81.8 | 16.8 | 25.6 | 14.5 | 18.4 | 22.9 | 13.3 | inhibition [22]: 7.5%; inhibition [23]: No action; inhibition [26]: No action
